We go through 26 compounds from ChEMBL document CHEMBL5346921, “Discovery of novel benzamide derivatives bearing benzamidophenyl and phenylacetamidophenyl scaffolds as potential antitumor agents via targeting PARP-1” (Eur J Med Chem, 2023).

SMILES strings stand for the structures. pIC50: −log10 of the molar value. Activity calls are given as the source filed them. The calls are words filed in the database; no cut-off is given here.

One data set relates to DLD-1. The experiment in a line: Antiproliferative activity against human DLD-1 cells assessed as reduction in cell viability incubated for 48 hrs by MTT assay. Conditions: DLD-1, 48 h. In kind it is functional, cell-based.
Data set [1] in a line: Cytotoxicity against human NCM460 cells assessed as reduction in cell viability incubated for 48 hrs by MTT assay. Format: toxicity, cell-based. (In general: Tetrazolium assays rely on reduction of a dye to a coloured formazan, in cell work by metabolically active cells.)
Data set [2] in a line: Selectivity index, ratio of IC50 for cytotoxicity against human NCM460 cells to IC50 for antiproliferative activity against human HCT-116 cells. In kind it is toxicity, cell-based. Conditions: NCM460 cells and HCT-116 cells, read-out: Ratio IC50.
The subject of data set [3] is HCT-116. The experiment in a line: cells. The note with it: Homo sapiens, HCT-116, 48 h.
Another data set relates to SW480. Description: cells. Conditions: Homo sapiens, SW480, 48 h.
Data set [4] has as its system HCT-116. The experiment in a line: Induction of mitochondrial membrane potential loss in human HCT-116 cells assessed as increase in monomer JC-1 level by measuring green fluorescence intensity at 15 uM incubated for 48 hrs by immunofluorescence analysis. Format: functional, cell-based.
In data set [5] the test system is HCT-116. Description: Induction of mitochondrial membrane potential loss in human HCT-116 cells assessed as JC-1 aggregate level by measuring red fluorescence intensity at 15 uM incubated for 48 hrs by JC-1 staining based flow cytometry (reference value: 96.72%). Format: functional. (A flow cytometer gives signals particle by particle.)
The test system of data set [6] is HCT-116. The experiment in a line: Induction of mitochondrial membrane potential loss in human HCT-116 cells assessed as JC-1 monomer level by measuring green fluorescence intensity at 15 uM incubated for 48 hrs by JC-1 staining based flow cytometry (reference value: 3.28%). In kind it is functional.
The target of data set [7] is Poly [ADP-ribose] polymerase 1 (Homo sapiens, UniProt P09874). Description: Inhibition of human PARP-1 by ELISA. On the technique in general: In an ELISA, binding on a coated surface is turned into a signal by an enzyme label.
Sequence of Poly [ADP-ribose] polymerase 1 (P09874 whole entry): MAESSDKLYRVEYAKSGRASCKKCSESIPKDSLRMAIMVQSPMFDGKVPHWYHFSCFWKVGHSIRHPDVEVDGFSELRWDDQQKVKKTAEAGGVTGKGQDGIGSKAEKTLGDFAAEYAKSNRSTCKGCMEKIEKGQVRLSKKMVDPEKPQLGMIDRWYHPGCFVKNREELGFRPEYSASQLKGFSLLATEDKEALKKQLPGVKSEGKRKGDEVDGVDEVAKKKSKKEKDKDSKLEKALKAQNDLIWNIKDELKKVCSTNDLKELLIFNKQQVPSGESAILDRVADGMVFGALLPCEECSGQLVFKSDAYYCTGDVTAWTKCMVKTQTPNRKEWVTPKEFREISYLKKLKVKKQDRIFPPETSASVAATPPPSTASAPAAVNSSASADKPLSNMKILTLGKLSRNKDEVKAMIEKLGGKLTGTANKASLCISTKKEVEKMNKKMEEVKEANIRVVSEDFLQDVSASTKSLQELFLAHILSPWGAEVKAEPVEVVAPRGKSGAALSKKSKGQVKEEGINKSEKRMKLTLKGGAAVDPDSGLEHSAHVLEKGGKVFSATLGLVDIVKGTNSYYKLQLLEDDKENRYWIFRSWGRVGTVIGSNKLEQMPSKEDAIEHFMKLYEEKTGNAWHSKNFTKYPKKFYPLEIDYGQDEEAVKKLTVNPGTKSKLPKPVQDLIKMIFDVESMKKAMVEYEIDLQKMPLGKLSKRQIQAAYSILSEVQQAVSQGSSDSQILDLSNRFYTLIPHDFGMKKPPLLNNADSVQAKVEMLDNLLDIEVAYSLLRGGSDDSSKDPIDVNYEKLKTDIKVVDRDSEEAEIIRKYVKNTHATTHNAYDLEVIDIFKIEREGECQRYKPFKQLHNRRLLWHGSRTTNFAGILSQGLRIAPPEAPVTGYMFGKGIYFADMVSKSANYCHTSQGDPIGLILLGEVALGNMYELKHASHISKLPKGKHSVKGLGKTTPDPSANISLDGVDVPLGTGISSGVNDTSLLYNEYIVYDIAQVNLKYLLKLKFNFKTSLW
The target of data set [8] is Poly [ADP-ribose] polymerase 2 (Homo sapiens, UniProt Q9UGN5). Description: Inhibition of human PARP-2 by ELISA.
Sequence of Poly [ADP-ribose] polymerase 2 (Q9UGN5 whole entry): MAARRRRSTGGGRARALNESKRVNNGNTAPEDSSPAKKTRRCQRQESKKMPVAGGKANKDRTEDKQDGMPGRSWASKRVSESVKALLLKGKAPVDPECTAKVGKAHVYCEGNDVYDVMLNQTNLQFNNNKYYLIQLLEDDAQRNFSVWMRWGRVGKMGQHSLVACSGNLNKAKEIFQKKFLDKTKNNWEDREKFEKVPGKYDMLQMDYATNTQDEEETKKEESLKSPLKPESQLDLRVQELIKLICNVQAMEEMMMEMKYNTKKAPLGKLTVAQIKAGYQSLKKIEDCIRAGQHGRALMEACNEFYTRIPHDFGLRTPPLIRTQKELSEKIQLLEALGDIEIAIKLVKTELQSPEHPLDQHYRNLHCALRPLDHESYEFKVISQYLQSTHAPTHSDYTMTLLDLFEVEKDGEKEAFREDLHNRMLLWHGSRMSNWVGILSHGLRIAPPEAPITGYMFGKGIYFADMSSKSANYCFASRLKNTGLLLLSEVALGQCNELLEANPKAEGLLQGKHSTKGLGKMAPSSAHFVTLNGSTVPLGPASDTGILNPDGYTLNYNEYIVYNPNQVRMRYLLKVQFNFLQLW

Description for SW480: Antiproliferative activity against human SW480 cells assessed as reduction in cell viability incubated for 48 hrs by MTT assay

The term pIC50 denotes the IC50 on a negative log10 scale, so that one unit is a factor of ten. What is called IC50 is the midpoint of a concentration-inhibition curve. As for `NC(=O)c1ccccc1OCc1cccc(NC(=O)Cc2ccccc2Cl)c1`, the pIC50 is 4.73 in the data set on DLD-1, 4.66 in the data set on HCT-116 [3] and 4.89 with SW480. In addition, the IC50 at 48 h in [1] turned out to be 98.7 µM. Also, in data set [2], the selectivity ratio stood at 4.48.

`NC(=O)c1ccccc1OCc1cccc(NC(=O)Cc2cccc(Cl)c2)c1`: the pIC50 in the data set on DLD-1 is 4.66; with HCT-116 [3] it was 5.13; with SW480 it was 5.26. Moreover, in data set [1], the IC50 at 48 h is 72.2 µM. The selectivity ratio in data set [2] was 9.79.

For `NC(=O)c1ccccc1NCc1cccc(NC(=O)Cc2cccc(Cl)c2)c1`, the pIC50 in the data set with DLD-1 was 5.04; in the data set with HCT-116 [3] it was 4.12; in the data set with SW480, < 4.00. Further, the IC50 at 48 h in data set [1] was determined as 77.2 µM. The selectivity ratio in data set [2] was determined as 1.02.

With `NC(=O)c1ccccc1OCc1cccc(NC(=O)c2cccc(Cl)c2)c1`, the pIC50 was 4.34 with DLD-1, 4.40 in the data set with HCT-116 [3] and < 4.00 in the data set on SW480. The IC50 at 48 h in data set [1] was 419 µM. The selectivity ratio in data set [2] stood at 10.6.

With `NC(=O)c1ccccc1OCc1cccc(NC(=O)Nc2cccc(Br)c2)c1`, the values for the pIC50 in the data set with DLD-1, in the data set on HCT-116 [3] and in the data set on SW480 were 4.88, 5.05 and 4.60, respectively. The IC50 at 48 h in data set [1] came out at 134 µM. Moreover, the selectivity ratio in data set [2] was 12.5.

For the compound `NC(=O)c1ccccc1OCc1cccc(NC(=O)Cc2ccccc2Br)c1`, the pIC50 with DLD-1 is 5.01; in the data set with HCT-116 [3], 5.09; with SW480 it was 5.09. Besides, the IC50 at 48 h in data set [1] turned out to be 183 µM. For the same compound, in data set [2], the selectivity ratio turned out to be 22.6.

For the compound `NC(=O)c1ccccc1NCc1cccc(NC(=O)c2ccc(Cl)cc2)c1`, the pIC50 in the data set on DLD-1 is 4.93; with HCT-116 [3], 4.34; with SW480, 4.21. In data set [1], the IC50 at 48 h was 563 µM. The selectivity ratio in data set [2] came to 12.5.

Take `NC(=O)c1ccccc1NCc1cccc(NC(=O)Cc2cccc(Br)c2)c1`: the pIC50 is 4.64 in the data set with DLD-1, 4.63 with HCT-116 [3] and 5.05 with SW480. In addition, in data set [1], the 50% inhibitory concentration (IC50) at 48 h is 129 µM. Also, in [2], the selectivity ratio came to 5.52.

For the compound `NC(=O)c1ccccc1OCc1cccc(NC(=O)c2cccc(Br)c2)c1`, the pIC50 in the data set with DLD-1 was 4.19; in the data set on HCT-116 [3] it was < 4.00; in the data set with SW480, < 4.00. Moreover, in data set [1], the IC50 at 48 h came to 238 µM.

For the compound `NC(=O)c1ccccc1NCc1cccc(NC(=O)Cc2ccc(Cl)cc2)c1`, the pIC50 in the data set on DLD-1 was 5.10; with HCT-116 [3] it was 4.81; in the data set on SW480 it was 4.69. Moreover, in data set [1], the IC50 at 48 h worked out at 14 µM. Besides, in data set [2], the selectivity ratio was 0.9.

Consider `NC(=O)c1ccccc1NCc1cccc(NC(=O)c2ccc(Br)cc2)c1`, for which the pIC50 in the data set with DLD-1 was 4.35; in the data set on HCT-116 [3], 4.42; in the data set with SW480, 4.43. Besides, the IC50 at 48 h in data set [1] is 60.2 µM. In addition, the selectivity ratio in [2] worked out at 1.59.

For the compound `NC(=O)c1ccccc1NCc1cccc(NC(=O)Nc2cccc(Br)c2)c1`, the pIC50 with DLD-1 was 5.11; in the data set with HCT-116 [3], 5.10; in the data set on SW480, 4.70. Further, the IC50 at 48 h in [1] turned out to be 154 µM. For the same compound, the selectivity ratio in data set [2] was found to be 17.9.

With `NC(=O)c1ccccc1NCc1cccc(NC(=O)c2ccccc2Br)c1`, the pIC50 is 4.46 in the data set with DLD-1, 4.64 with HCT-116 [3] and 4.76 with SW480. Further, in [1], the IC50 at 48 h is 65.8 µM. For the same compound, the selectivity ratio in data set [2] is 2.88.

`NC(=O)c1ccccc1OCc1cccc(NC(=O)Cc2ccc(Cl)cc2)c1`: the pIC50 was 4.71 with DLD-1, 5.23 with HCT-116 [3] and 4.56 in the data set on SW480. Besides, the IC50 at 48 h in data set [1] is 286 µM. In addition, in data set [2], the selectivity ratio stood at 48.8.

Regarding `NC(=O)c1ccccc1NCc1cccc(NC(=O)Cc2ccccc2Cl)c1`, the pIC50 in the data set with DLD-1 was 4.53; in the data set with HCT-116 [3], 4.86; in the data set with SW480, 4.97. Further, the IC50 at 48 h in data set [1] was 65 µM. Further, the selectivity ratio in data set [2] was 4.72.

Turning to `NC(=O)c1ccccc1NCc1cccc(NC(=O)c2cccc(Cl)c2)c1`, the negative-log IC50 (pIC50) is 4.34 in the data set with DLD-1, 4.58 in the data set with HCT-116 [3] and 4.21 in the data set on SW480. For the same compound, the IC50 at 48 h in data set [1] turned out to be 200 µM. The selectivity ratio in [2] is 7.58.

`NC(=O)c1ccccc1OCc1cccc(NC(=O)Cc2ccc(Br)cc2)c1`: the pIC50 in the data set with DLD-1 is 4.74; with HCT-116 [3] it was 5.39; in the data set on SW480 it was 4.51. The IC50 at 48 h in data set [1] stood at 78 µM. Moreover, the selectivity ratio in data set [2] is 19.

As for `NC(=O)c1ccccc1OCc1cccc(NC(=O)c2ccccc2Br)c1`, the pIC50 is 4.33 in the data set with DLD-1, 4.22 with HCT-116 [3] and 4.77 with SW480. Also, the IC50 at 48 h in [1] was found to be 161 µM. Further, the selectivity ratio in data set [2] amounted to 2.68.

Consider `NC(=O)c1ccccc1NCc1cccc(NC(=O)Cc2ccc(Br)cc2)c1`, for which the pIC50 is 4.85 in the data set on DLD-1, 4.71 in the data set with HCT-116 [3] and 5.06 in the data set on SW480. Further, in [1], the IC50 at 48 h was determined as 51.3 µM. Further, the selectivity ratio in data set [2] turned out to be 2.62.

As for `O=C(c1cc(Cc2n[nH]c(=O)c3ccccc23)ccc1F)N1CCN(C(=O)C2CC2)CC1` [OLAPARIB], the pIC50 with DLD-1 was 4.86; in the data set with HCT-116 [3], 4.58; with SW480 it was 4.41. In addition, in [1], the IC50 at 48 h is 319 µM. Also, in the data set with HCT-116 [4], the outcome was Active. Besides, the results for the Activity in the data set with HCT-116 [5] and in the data set with HCT-116 [6] were 83.67% and 16.33%, respectively.

`NC(=O)c1ccccc1OCc1cccc(NC(=O)c2ccccc2Cl)c1`: the pIC50 in the data set on DLD-1 is 4.44; with HCT-116 [3], 4.45; in the data set with SW480, 4.94. Besides, the IC50 at 48 h in [1] is 131 µM. For the same compound, the selectivity ratio in [2] turned out to be 3.72.

In the case of `NC(=O)c1ccccc1OCc1cccc(NC(=O)c2ccc(Cl)cc2)c1`, the negative-log IC50 (pIC50) with DLD-1 is 4.89; in [7] it was 8.89; in data set [8], 8.36; in the data set with HCT-116 [3] it was 6.48; in the data set with SW480, 4.48. Further, the IC50 at 48 h in data set [1] was determined as 340 µM. Besides, the selectivity ratio in data set [2] was 1020.

As to `NC(=O)c1ccccc1OCc1cccc(NC(=O)Cc2cccc(Br)c2)c1`, the pIC50 with DLD-1 is 4.83; in the data set on HCT-116 [3], 5.20; in the data set on SW480, 4.80. Also, the half-maximal inhibitory concentration (IC50) at 48 h in [1] amounted to 91.2 µM. Moreover, the selectivity ratio in data set [2] worked out at 14.4.

On to `NC(=O)c1ccccc1NCc1cccc(NC(=O)c2cccc(Br)c2)c1`, for which the pIC50 in the data set with DLD-1 is 5.00; in the data set on HCT-116 [3], 5.24; in the data set on SW480 it was 5.29. In addition, the IC50 at 48 h in data set [1] came out at 73.5 µM. Moreover, the selectivity ratio in data set [2] worked out at 12.9.

On to `NC(=O)c1ccccc1NCc1cccc(NC(=O)c2ccccc2Cl)c1`, for which the pIC50 in the data set on DLD-1 was 5.04; in the data set on HCT-116 [3], 4.42; in the data set with SW480, 4.50. In data set [1], the IC50 at 48 h is 105 µM. Besides, the selectivity ratio in data set [2] is 2.78.

In the case of `NC(=O)c1ccccc1NCc1cccc(NC(=O)Cc2ccccc2Br)c1`, the pIC50 in the data set with DLD-1 was 4.93; in the data set with HCT-116 [3], 4.68; with SW480 it was 4.85. Moreover, in data set [1], the IC50 at 48 h was 69.4 µM. Moreover, in [2], the selectivity ratio came out at 3.35.
